These results are taken from patent publication US6747052B2, “Substituted indole-2-carboxylic acid benzylidene-hydrazides and analogs as activators of caspases and inducers of apoptosis and the use thereof” (Cytovia, Inc., priority 2000, dated 2004).

Assay [1] relates to ZR-75-1. In words: Caspase cascade activation (N-(Ac-DEVD)-N'-ethoxycarbonyl-R110 fluorogenic substrate) in ZR-75-1 cells. It counts as cell-based, Human. The conditions noted are these: ZR-75-1, 24 h incubation with compound. The method, then:
Human breast cancer cell lines T-47D and ZR-75-1 were grown according to media component mixtures designated by American Type Culture Collection +10% FCS (Invitrogen Corporation, Life Technologies division), in a 5% CO2-95% humidity incubator at 37° C. T-47D and ZR-75-1 cells were maintained at a cell density between 30 and 80% confluency at a cell density of 0.1 to 0.6×10^6 cells/ml. Cells were harvested at 600×g and resuspended at 0.65×10^6 cells/ml into appropriate media +10% FCS. An aliquot of 45 μl of cells was added to a well of a 96-well microtiter plate containing 5 μl of a 10% DMSO in RPMI-1640 media solution containing 0.16 to 100 μM of 5-chloro-3-methyl-indole-2-carboxylic acid (4-nitrobenzylidene)-hydrazide (Compound A) or other test compound (0.016 to 10 μM final). An aliquot of 45 μl of cells was added to a well of a 96-well microtiter plate containing 5 μl of a 10% DMSO in RPMI-1640 media solution without test compound as the control sample. The samples were mixed by agitation and then incubated at 37° C. for 24 h in a 5% CO2-95% humidity incubator. After incubation, the samples were removed from the incubator and 50 μl of a solution containing 20 μM of N-(Ac-DEVD)-N′-ethoxycarbonyl-R110 fluorogenic substrate (Cytovia, Inc.; WO99/18856), 20% sucrose (Sigma), 20 mM DTT (Sigma), 200 mM NaCl (Sigma), 40 mM Na PIPES buffer pH 7.2 (Sigma), and 500 μg/ml lysolecithin (Calbiochem) was added. The samples were mixed by agitation and incubated at room temperature. Using a fluorescent plate reader (Model 1420 Wallac Instruments), an initial reading (T=0) was made approximately 1-2 min after addition of the substrate solution, employing excitation at 485 nm and emission at 530 nm, to determine the background fluorescence of the control sample. After the 3 h incubation, the samples were read for fluorescence as above (T=3 h).
The Relative Fluorescence Unit values (RFU) were used to calculate the sample readings as follows: RFU(T=3h)−Control RFU(T=0)=Net RFU(T=3h)
The activity of caspase cascade activation was determined by the ratio of the net RFU value for 5-chloro-3-methyl-indole-2-carboxylic acid (4-nitrobenzylidene)-hydrazide (Compound A) or other test compound to that of control samples. The EC50 (nM) was determined by a sigmoidal dose-response calculation (Prism 2.0, GraphPad Software Inc.).

In assay [2] the test system is ZR-75-1. In words: Inhibition of cell proliferation (GI50, CellTiter 96 AQueous One) in ZR-75-1 cells. The conditions noted are these: Homo sapiens, ZR-75-1, 48 h; read-out: GI50 (dose for 50% inhibition of cell proliferation). It counts as cell-based. The method, then:
T-47D and ZR-75-1 cells were grown and harvested as in Example 1. An aliquot of 90 μl of cells (2.2×10^4 cells/ml) was added to a well of a 96-well microtiter plate containing 10 μl of a 10% DMSO in RPMI-1640 media solution containing 1 nM to 100 μM of 5-chloro-3-methyl-indole-2-carboxylic acid (4-nitrobenzylidene)-hydrazide (Compound A) or 5-chloro-3-phenyl-indole-2-carboxylic acid (4-nitrobenzylidene)-hydrazide (Compound B) (0.1 nM to 10 μM final). An aliquot of 90 μl of cells was added to a well of a 96-well microtiter plate containing 10 μl of a 10% DMSO in RPMI-1640 media solution without compound as the control sample for maximal cell proliferation (AMax). The samples were mixed by agitation and then incubated at 37° C. for 48 h in a 5% CO2-95% humidity incubator. […] Using an absorbance plate reader (Model 1420 Wallac Instruments), an initial reading (T=0) was made approximately 1-2 min after addition of the solution, employing absorbance at 490 nm. This determines the possible background absorbance of the test compounds. No absorbance for 5-chloro-3-methyl-indole-2-carboxylic acid (4-nitrobenzylidene)-hydrazide or 5-chloro-3-phenyl-indole-2-carboxylic acid (4-nitrobenzylidene)-hydrazide was found at 490 nm. After the 2-4 h incubation, the samples were read for absorbance as above (ATest). […]

The test system of the next assay is Jurkat cells. Description: Nuclear fragmentation in Jurkat cells (Syto16 staining). The format is cell-based. The conditions noted are these: 5 μM, 24 h. The method, then:
The ability of 5-chloro-3-methyl-indole-2-carboxylic acid (4-nitrobenzylidene)-hydrazide to induce nuclear fragmentation, an indicator of apoptosis, was tested by treatment of Jurkat cells with the test compound followed by staining of the nucleus with Syto16, a fluorescent DNA dye (Molecular Probes, Eugene, Oreg.). The nuclei of Jurkat cells treated with vehicle control (DMSO) are seen to be round with dispersed chromatin that is moderately stained with Syto16 (FIG. 1A).

In the case of `Cc1c(C(=O)NN=Cc2ccc([N+](=O)[O-])cc2)[nH]c2ccc(Cl)cc12` [Compound A, 5-chloro-3-methyl-indole-2-carboxylic acid (4-nitrobenzylidene)-hydrazide], the EC50 (as a rule, the concentration needed to bring the measured effect to its halfway point) with ZR-75-1 [1] (Homo sapiens) came out at 0.532 µM. The “Caspase activity Ratio (net RFU of test compound to control)” value in the assay with ZR-75-1 [1] (3 h substrate reading) stood at 7.0. In the assay with ZR-75-1 [2], the GI50 was 12 µM. Also, the “Nuclear morphology (nuclear fragmentation)” value in the assay on Jurkat cells is “shrunken and fragmented nuclei”.
